Results as given in patent US20100137232A1 (priority 2004, published 2010).

How the values were obtained:
[1] = cited from earlier work
[2] = humans, cited from earlier work
[3] = in vivo
From the text: In the specification, the terms ‘eye-acceptable’ and ‘acceptable to the eye’ (as well as similar terms) are intended to mean that no lachrymatory effect is seen and/or no irritation of, and/or damage to, the surface of the eye (cornea) and/or the surrounds of the eye (the lids, tear ducts etc.) and/or the deeper structures within the eye (lens, muscles etc.).

stromal proteins = settings: cited from earlier work

maximum concentration which is acceptable in and to the eye [3]	Structure (SMILES)	solubility in chloroform ([1]; chloroform)	solubility in diluted (50%) alcohol ([1]; diluted (50%) alcohol)	solubility in ether ([1]; ether)	solubility in pyridine ([1]; pyridine)	solubility in water ([1]; water)	bioavailability ([2]; calculated from an oral dosage form)	half-life ([2]; oral dosage form)	toxic effect on stromal proteins (stromal proteins)
–	C[C@H]1O[C@@H](O[C@H]2[C@@H](O)C[C@H](O[C@H]3[C@@H](O)C[C@H](O[C@H]4CC[C@@]5(C)[C@H](CC[C@@H]6[C@@H]5C[C@@H](O)[C@]5(C)[C@@H](C7=CC(=O)OC7)CC[C@]65O)C4)O[C@@H]3C)O[C@@H]2C)C[C@H](O)[C@@H]1O [Digoxin]	slightly soluble	slightly soluble	practically insoluble	freely soluble	practically insoluble	about 80%	42 h	–
2.5 v/v %	CCO [ethanol]	–	–	–	–	–	–	–	direct toxic effect
